This is an account of results in US20110263539A1, “SHIP 1 MODULATOR COMPOUNDS” (THE UNIVERSITY OF BRITISH COLUMBIA, priority 2006, published 2011).

One data set concerns SHIP enzyme. As to the kind of experiment: In vitro SHIP enzyme assay (Assay 1). For Assay Number 1: SHIP enzyme assay: key: a ‘+’ indicates a positive result for desired activity; a ‘−’ indicates a negative result for desired activity. The class given is biochemical. How it is done: Assay 1) In vitro testing in a SHIP enzyme assay. Test compounds were dissolved in a suitable solvent (e.g. EtOH, DMSO and others) and diluted into aqueous buffer (20 mM Tris HCl, pH 7.5 and 10 mM MgCl2). SHIP enzyme assays were performed in 96-well microtitre plates with 10 ng of enzyme/well in a total volume of 25 μL of 20 mM Tris HCl, pH 7.5 and 10 mM MgCl2. SHIP enzyme was incubated with test extracts (provided in solvent) or vehicle for 15 min at 23° C. before the addition of 100 μM inositol-1,3,4,5-tetrakisphosphate (Echelon Biosciences Inc, Salt Lake City, Utah). After 20 min at 37° C. and the amount of inorganic phosphate released assessed by the addition of Malachite Green reagent and absorbance measurement at 650 nm.
For in vitro testing in the SHIP enzyme assay, AQX-016A and Compound 100 were dissolved in EtOH and diluted into aqueous buffer (20 mM Tris HCl, pH 7.5 and 10 mM MgCl2). The actual concentration of drug in solution was determined by optical density measurement at 280 nm (λmax for both compounds) after high speed centrifugation at 14 000×g for 30 min to remove precipitated drug. For testing on cells, compounds were formulated in the carrier cyclodextrin (Cyclodex Technologies, High Springs, Fla.) at 6 mM (2 mg/mL). For oral administration to animals, compounds were dissolved in 100% cremophore EL (Sigma-Aldrich Canada, Oakville, Ontario) at 150 mM (50 mg/mL) prior to dilution to 6 mM in phosphate buffer saline. However, while these compounds caged in cyclodextrin or formulated in cremophore EL micelles were very soluble in aqueous solution, they could not be used in the SHIP enzyme assays because of interference from both cyclodextrin and cremophore EL.
N-terminal His6 tagged SHIP enzyme was expressed in mammalian 293T cells by transient transfection with pME18S-His-SHIP plasmid and purified to >95% homogeneity by Ni-chelating bead chromatography (Qiagen, Mississauga, Ontario). Recombinant SHIP C2 domain (amino acid residues 725 to 863) was expressed in E. coli transformed with a pET28C expression vector constructed as described below. Recombinant protein purified from the cell lysates by Nichelating bead chromatography was >95% pure.
In vitro SHIP enzyme assay. SHIP enzyme assays were performed in 96-well microtitre plates with 10 ng of enzyme/well in a total volume of 25 μL of 20 mM Tris HCl, pH 7.5 and 10 Mm MgCl2. SHIP enzyme was incubated with test extracts (provided in DMSO) or vehicle for 15 min at 23° C. before the addition of 100 μM inositol-1,3,4,5-tetrakisphosphate (Echelon Biosciences Inc, Salt Lake City, Utah). After 20 min at 37° C. and the amount of inorganic phosphate released assessed by the addition of Malachite Green reagent and absorbance measurement at 650 nm. SHIP2 enzyme was purchased from Echelon Biosciences (Salt Lake City, Utah) and an equivalent amount of inositol phosphatase activity was used in the in vitro enzyme assay. Enzyme data are expressed as the mean of triplicates +/−SEM. Experiments were performed at least 3 times. (FIGS. 7A and 7B).

Data set [1] in a line: Initial toxicology studies. The conditions noted are these: data not shown. The class given is in vivo. An excerpt: A novel paradigm for inhibiting PI3K signaling through activation of the phosphatases that negatively regulate this pathway is provided. SHIP is a particularly good target for immune/hematopoietic disorders because of its restricted expression to hematopoietic cells. Because the relative activity of phosphatases present in a cell will influence the efficacy of kinase inhibitors, as discussed by Knight and Shokat, SHIP agonists may also be used to potentiate the activation of PI3K inhibitors and promote tissue targeting of PI3K inhibitors to the ematopoietic/immune cell compartment.

A further data set has as its system MM cell lines. The experiment in a line: In vitro Multiple Myeloma (MM) assay (Assay 7). For Assay Number 7: In vitro Multiple Myeloma (MM) assay: key: a ‘+’ indicates a positive result for desired activity; a ‘−’ indicates a negative result for desired activity. It counts as cell-based.

As to `Cc1cc(O)cc2c1[C@]1(C)CCC3C(C)(C)CCC[C@]3(C)[C@H]1C2` (some centres unmarked) [Compound 100], the “Assay Number 1: SHIP enzyme assay” value with SHIP enzyme (100 μM inositol-1,3,4,5-tetrakisphosphate, Malachite Green) is on record as “+”. Further, the SHIP enzyme activity entry with SHIP enzyme (wild-type SHIP) is reported as “enhanced SHIP enzyme activity in vitro”. In data set [1], the “peripheral blood cell counts or bone marrow progenitor numbers” value is “do not significantly affect”. In the data set with MM cell lines, the “Assay Number 7: In vitro Multiple Myeloma (MM) assay” value is given as “+”. Moreover, the MM proliferation result in the data set with MM cell lines (viable cell numbers, trypan blue exclusion) was “inhibits MM proliferation at lower concentrations than AQX-016A”.
